Source: patent publication US7151104B2, “Pyrazolopyridines as cyclin dependent kinase inhibitors” (Schering Corporation, priority 2002, dated 2006)

Biological target: T1, Cyclin E/CDK2 (Homo sapiens, UniProt P24941)
T1 construct: The expressed protein was approximately 34 kDa in size; made in house; host or cells: SF9 insect cells (baculovirus co-infection)
Assay: Cyclin E/CDK2 in vitro kinase assay (SPA, 33P-ATP, biotinylated Histone H1 peptide)
Type: biochemical
Conditions: recombinant cyclin E/CDK2 from SF9 cells; 8 point serial dilutions in duplicate; 1 hour at room temperature

Compound: Clc1cnn2c(NCc3cncnc3)cc(-c3ccccc3)cc12
- IC50: 78 nM
